From patent US10179770B2, “Quinolines derivatives as novel anticancer agents” (GENOSCIENCE PHARMA, priority 2013, dated 2019)

What was measured:
[1] = test system: ALDH+ cancer stem cells (CSC) in MOLM-14 cell line; experiment: Aldefluor kit assay, ALDH+ compartment analysis; format: cell-based, human; conditions: for Aldefluor™ positive CSCs (% of control): 72 h; for Aldefluor positive CSCs (% of control): MOLM-14 cell line, 72 h incubation
Excerpt: Analysis of the of aldehyde dehydrogenase (ALDH) compartment and high activity level of aldehyde dehydrogenase activity (ALDH+) was used to detect tumor initiating cells (cancer stem cells, CSC) population. The Aldefluor™ kit assay (StemCell Technologies) allowed to assess the activity of drugs on CSC cells like in aa MOLM-14 acute myeloid leukemia cell line population. The Aldefluor™ kit assay was used according to the procedure described by the manufacturer. Briefly, MOLM-14 cell line was cultured in RPMI-1640 Medium supplemented with 10% v/v Fetal Bovine Serum (FBS), 1% Penicillin-Streptomycin and maintained at 37° C. with 5% CO2. 5·10^5 cells were used in this assay. Each compound was added at different concentrations (see table 13 and 14), and cell cultures were incubated for 72 h. Vehicle (H2O) was used as a control, and all compounds were tested in a constant percentage of vehicle. Cells obtained from cell culture were incubated for 45 minutes at 37° C. with Aldefluor™ buffer assay containing the Bodipy™-aminoacetaldehyde (BAAA), a fluorescent ALDH aldehyde substrate. ALDH converts the fluorescent substrate BAAA to the Bodipy™-aminoacetic acid (BAA) which is retained in the cell. An active efflux inhibitor is present in the Adelfluor™ assay buffer in order to avoid the active efflux from the cell of the substrate product ALDH dependent converted BAA. The fluorescent signal is directly proportional to the ALDH activity in the cells and is measured by flow cytometry. A negative control is used to measure the background fluorescence level. For such purpose, 4-(N,N-diethylamino)-benzaldehyde (DEAB) was used as selective ALDH inhibitor. A viability cell count was performed using LIVE/DEAD® Fixable Far Red Dead Cell Stain Kit (Invitrogen). The experimental data are analyzed using a computer program, Graphpad Prism (GraphPad Software, Inc. La Jolla, Calif.) and EC50 values were determined as the dose of compound required to reduce absorbance values to 50% of the signal obtained for vehicle treated cell cultures.

[2] = test system: MOLM-14 cell line; experiment: Growth inhibition assay of MOLM-14 (CellTiter-Glo, example 63); format: cell-based; conditions: Homo sapiens, 48 h, method of example 63
Protocol: MOLM-14 cell line was cultured in RPMI-1640 Medium supplemented with 10% v/v Fetal Bovine Serum (FBS), 1% Penicillin-Streptomycin and maintained at 37° C. with 5% CO2. 10,000 cells were plated onto 96-well plates immediately before the assay.
Each compound was added at different concentrations (combinations of six concentrations) to each well, and cell cultures were incubated for 48 h. Vehicle (H2O) was used as a control, and all compounds were tested in a constant percentage of vehicle. Cell outgrowth was measured using the CellTiter-Glo luminescent cell viability assay as described by the manufacturer (Promega, Ref G7571 Madison, Wis., USA) using a Centro (Berthold, France) plate reader.
In each experiment, each point represents the average of triplicates in cell culture.
The experimental data are analyzed using a computer program, Graphpad Prism (GraphPad Software, Inc. La Jolla, Calif.) and EC50 values were determined as the dose of compound required to reduce absorbance values to 50% of the signal obtained for vehicle treated cell cultures.

[3] = test system: Kasumi-1; experiment: CellTiter-Glo cell viability assay (example 57); format: cell-based; conditions: Homo sapiens; Kasumi-1 (Leukemia); Cell Titer-Glo; 72 h
Protocol: (§1) The human breast cancer cell line SkBr3 and the human metastatic prostate carcinoma cell line LnCAP were cultured in Dulbecco's modified Eagle's medium (DMEM) supplemented with 10% fetal bovine serum (FBS) and 0.1% sodium pyruvate. The human myelocytic cell line U937 and NB4 were maintained in RPMI medium 1640 1× (Gibco 21875-034) supplemented with 10 % Fetal Bovine Serum (FBS, Eurobio S39130-0808) Kasumi and SKM-1 were maintained in RPMI medium 1640 1× (Gibco 21875-034) supplemented with 20 % Fetal Bovine Serum (FBS, Eurobio S39130-0808), HL60 was maintained in Iscove's modified Dulbecco's medium 1× (IMDM, Gibco 21890) supplemented with 20% Fetal Bovine Serum (FBS, Eurobio S39130-0808), cell line was maintained in MEM alpha medium (Gibco 22561-021) supplemented with 10% FBS at 37° C. with 5% CO2. Cell outgrowth was measured using the CellTiter-Glo luminescent cell viability assay as described by the manufacturer (Promega, Ref G7571 Madison, Wis., USA) using a FLUOstar optima luminometer (BMG Labtech, Ortenberg, Germany).
(§2) Briefly, for adherent cells, 10^4 cells were plated onto 96-well plates (white with clear bottom (3610, Corning Costar) in 100 μL of media per well and were allowed to grow overnight before the assay. For cells growing in suspension, 10^4 cells were plated onto 96-well plates immediately before the assay. […] Vehicle (DMSO) was used as a control, and all compounds were tested in a constant percentage of DMSO (1%). After addition of 50 μL of CellTiter GLO, luminescence was measured using a Centro luminometer (Berthold). EC50 values were determined as the dose of compound required to reduce luminescent values to 50% of the signal obtained for untreated cell cultures. All experiments were done in duplicate and repeated two independent times.

[4] = test system: SKM-1; experiment: CellTiter-Glo cell viability assay (example 57); format: cell-based; conditions: Homo sapiens; SKM-1 (Leukemia); Cell Titer-Glo; 72 h
Protocol: as §1, §2

[5] = test system: NB4; experiment: CellTiter-Glo cell viability assay (example 57); format: cell-based; conditions: Homo sapiens, NB-4; NB4 (Leukemia); Cell Titer-Glo; 72 h
Protocol: as §1, §2

[6] = test system: MOLM-14; experiment: CellTiter-Glo cell viability assay (example 57); format: cell-based; conditions: Homo sapiens; MOLM-14 (Leukemia); Cell Titer-Glo; 72 h
Protocol: as §1, §2

[7] = test system: HL60; experiment: CellTiter-Glo cell viability assay (example 57); format: cell-based; conditions: Homo sapiens, HL-60; HL60 (Leukemia); Cell Titer-Glo; 72 h
Protocol: as §1, §2

[8] = test system: U937; experiment: CellTiter-Glo cell viability assay (example 57); format: cell-based; conditions: Homo sapiens, U-937; U937 (Leukemia); Cell Titer-Glo; 72 h
Protocol: as §1, §2

[9] = test system: KG-1; experiment: CellTiter-Glo cell viability assay (example 57); format: cell-based; conditions: Homo sapiens; KG-1 (Leukemia); Cell Titer-Glo; 72 h
Protocol: as §1, §2

[10] = test system: MIA PaCa-2; experiment: Cell viability assay, pancreatic cancer cell lines; format: cell-based; conditions: Homo sapiens; MIA PaCa-2 (Pancreas); 48 h
Protocol: (§3) MiaPaCa-2, Panc-1 cells were grown in Dulbecco's modified eagle's medium (DMEM) (Gibco) supplemented with 10% fetal bovine serum (FBS), while BxPC-3, Capan-1, Capan-2 cells were grown in Roswell Park Memorial Institute 1640 (RPMI 1640) (Gibco) supplemented with 10% FBS. Gemcitabine (Gemzar) was purchased from Lilly France S.A.S (Suresnes, France). (3-(4,5-dimethylthiazol-2-yl)-2,5diphenyltetrazolium bromide, MTT) was purchased from Sigma-Aldrich.
(§4) BxPC-3, MiaPaCa-2, Panc-1 cells were seeded into a 96-well plate at 10,000 10,000 15,000 cells per well respectively, while Capan-1 and Capan-2 cells at 20,000 cells per well and allowed to adhere overnight. Then the culture medium was removed and replaced with fresh media alone as control or containing various concentrations of different compounds. In dose-dependent assay, the cells were treated with compound XIX-3 at the concentration varying from 0.1 μM to 100 μM while the cells being cultured by fresh media alone were used as control. After 48 h treatment, the number of remained viable cells was determined by (3-(4,5-dimethylthiazol-2-yl)-2,5diphenyltetrazolium bromide, MTT) colorimetric assay (see Sigma Aldrich protocol and Riss T. L. et al. Cell Viability Assays in Assay Guidance Manual 2013 ppl.). All experiments were done in duplicate and repeated two independent times.

[11] = test system: Capan-1; experiment: Cell viability assay, pancreatic cancer cell lines; format: cell-based; conditions: Homo sapiens; Capan-1 (Pancreas); 48 h
Protocol: as §3, §4

[12] = test system: Panc-1; experiment: Cell viability assay, pancreatic cancer cell lines; format: cell-based; conditions: Homo sapiens; Panc-1 (Pancreas); 48 h
Protocol: as §3, §4

[13] = test system: BxPC-3; experiment: Cell viability assay, pancreatic cancer cell lines; format: cell-based; conditions: Homo sapiens; BxPC-3 (Pancreas); 48 h
Protocol: as §3, §4

[14] = test system: Capan-2; experiment: Cell viability assay, pancreatic cancer cell lines; format: cell-based; conditions: Homo sapiens; Capan-2 (Pancreas); 48 h
Protocol: as §3, §4

[15] = test system: U87-MG; experiment: CellTiter 96 Aqueous One Solution (MTS) cell proliferation assay; format: cell-based; conditions: Homo sapiens, U-87 MG; U87-MG (Glioma); Cell Titer 96 Aqueous One Solution; 72 h; mean of seven independent triplicate assays
Protocol: The human glioblastoma cell line U87-MG was cultured in Minimum Essential Medium (Life Invitrogen, 31095029) supplemented with 10% fetal bovine serum (GIBCO, 10500-056) and 1 % penicillin-streptomycin (GIBCO, 15140-122). Flasks and plated used for the cell culture were coated with 25 μg/mL poly-D-lysine (Sigma, P7280).
Cell outgrowth was measured using a tetrazolium compound (3-[4,5-dimethylthiazol-2-yl]-5-[3-carboxymethoxyphenyl]-2-[4-sulfophenyl]-2H tetrazolium, inner salt [MTS]) from the CellTiter 96® Aqueous One Solution Cell Proliferation Assay (Promega, Ref G3580) and according to the manufacturer procedure.
5000 cells were plated onto 96-well plates in 100 μL of media per well and were allowed to grow overnight before the assay. Compounds were added at different concentrations to each well, and cell cultures were incubated for 72 h. Control compound was the diluent used for compound resuspension (H2O). After addition of 20 μL of CellTiter 96® Aqueous One Solution, absorbance at 492 nm was measured using a microplate reader Sunrise (Tecan). EC50 values were determined as the dose of compound required to reduce […] values to 50% of the signal obtained for untreated cell cultures. […] The experimental data are analyzed using a computer program, Graphpad Prism (GraphPad Software, Inc. La Jolla, Calif.).

[16] = test system: HT29; experiment: CellTiter-Glo cell viability assay (example 57); format: cell-based; conditions: Homo sapiens, HT-29; HT29 (Colon); Cell Titer-Glo; 72 h
[17] = test system: HepG2; experiment: CellTiter-Glo cell viability assay (example 57); format: cell-based; conditions: Homo sapiens; HepG2 (Liver); Cell Titer-Glo; 72 h
Protocol: as §1, §2

[18] = test system: LNCaP; experiment: CellTiter-Glo cell viability assay (example 57); format: cell-based; conditions: Homo sapiens; LNCaP (Prostate); Cell Titer-Glo; 72 h
Protocol: as §1, §2

[19] = test system: SkBr3; experiment: CellTiter-Glo cell viability assay (example 57); format: cell-based; conditions: Homo sapiens, SK-BR-3; SkBr3 (Breast); Cell Titer-Glo; 72 h
Protocol: as §1, §2

[20] = test system: B16F10; experiment: CellTiter-Glo cell viability assay (example 57); format: cell-based, human; conditions: Mus musculus, B16-F10; B16F10 (Melanoma); Cell Titer-Glo; 72 h

| SMILES | EC50 [3] [µM] | EC50 [4] [µM] | EC50 [5] [µM] | EC50 [6] [µM] | EC50 [7] [µM] | EC50 [8] [µM] | EC50 [9] [µM] | EC50 [13] [µM] | EC50 [16] [µM] | EC50 [17] [µM] | EC50 [18] [µM] | EC50 [19] [µM] | further results |
| --- | --- | --- | --- | --- | --- | --- | --- | --- | --- | --- | --- | --- | --- |
| Nc1ccn([C@@H]2O[C@H](CO)[C@@H](O)[C@@H]2O)c(=O)n1 [Cytarabine] | 0.15 | 2 | 0.02 | 3 | 2 | 0.03 | 0.15 |  |  |  |  |  | Aldefluor™ positive CSCs (% of control) ([1]; MOLM-14, 1 μM): 130 % of control; Aldefluor™ positive CSCs (% of control) ([1]; MOLM-14, 3 μM): 116 % of control; Activity against CSCs in Aldefluor™ assay (proportion of CSCs) ([1]; MOLM-14, dose dependent, Cytarabine up to 3-fold its EC50): not active against CSCs; Aldefluor positive CSCs (% of control) ([1]; 1 μM): 130 % of control; Aldefluor positive CSCs (% of control) ([1]; 3 μM): 116 % of control; EC50 [2]: 1 µM |
| CCN(CCO)CCCC(C)Nc1ccnc2cc(Cl)ccc12 (stereo not drawn) [HCQ, hydroxychloroquine] | 20 | 70 | 57 | 50 | 40 | 60 | 60 | 53 | 20 | 20 | 25 | 20 | EC50 [10]: 47 µM; EC50 [11]: 41 µM; EC50 [12]: 57 µM; EC50 [14]: 47 µM; EC50 [15]: 55 µM; EC50 [20]: 20 µM |
| Nc1ccn([C@@H]2O[C@H](CO)[C@@H](O)C2(F)F)c(=O)n1 [Gemcitabine, gemcitabine] |  |  |  |  |  |  |  | 0.02 | 0.2 | 0.02 | 0.04 | 0.2 |  |
